Reference: patent US7138361B2, “Herbicidal heterocycles” (E. I. du Pont de Nemours and Company, priority 2000, dated 2006)

Tests used:
Type in all cases: in vivo
Nightshade = assay: Test C preemergence; conditions: Rate 500 g/ha, visual evaluation after 12 to 14 days
[1] = test system: morning glory (Ipomoea hederacea); assay: Test B preemergence
In short: (§1)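 Seeds were planted and sprayed preemergence with test chemical in a non-phytotoxic solvent mixture containing surfactant; postemergence plants (2 to 18 cm, 1- to 4-leaf stage) received the same formulation. Greenhouse hold 13 to 15 days, then visual rating versus untreated controls on a 0–100 scale (0 no effect, 100 complete control).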

[2] = test system: cocklebur (Xanthium strumarium); assay: Test B preemergence
In short: as §1

[3] = test system: giant foxtail (Setaria faberii); assay: Test B preemergence
In short: as §1

rice (Oryza saliva) [4] = assay: Test B preemergence
In short: as §1

[5] = test system: crabgrass (Digitaria sanguinalis); assay: Test B preemergence
In short: as §1

[6] = test system: velvetleaf (Abutilon theophrasti); assay: Test B preemergence
In short: as §1

corn (Zea mays) = assay: Test B preemergence
In short: as §1

[7] = test system: pigweed (Amaranthus retroflexus); assay: Test B preemergence
In short: as §1

[8] = test system: barnyardgrass (Echinochloa crus-galli); assay: Test B preemergence
In short: as §1

[9] = test system: lambsquarters (Chenopodium album); assay: Test B preemergence
In short: as §1

[10] = test system: Surinam grass (Brachiaria decumbens); assay: Test B preemergence
In short: as §1

rice (Oryza saliva) [11] = assay: Test C flooded paddy test; conditions: for Rice plant response rating: Flooded Paddy, scale 0 to 100, 0 no effect, 100 complete control; for Plant response rating, Rice: scale 0 to 100 (0 no effect, 100 complete control)
In short: (§2)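 Visual ratings (0 = no effect, 100 = complete control) were made 12–14 days after treatment, relative to greenhouse controls. Plants in the flooded paddy test were rice, smallflower flatsedge, duck salad and barnyardgrass, treated at the 2-leaf stage.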

[12] = test system: duck salad (Heteranthera limosa); assay: Test C flooded paddy test; conditions: for Ducksalad plant response rating: Flooded Paddy, scale 0 to 100, 0 no effect, 100 complete control; for Plant response rating, Ducksalad: scale 0 to 100 (0 no effect, 100 complete control)
In short: as §2

[13] = test system: smallflower flatsedge (Cyperus difformis); assay: Test C flooded paddy test; conditions: for Flatsedge plant response rating: Flooded Paddy, scale 0 to 100, 0 no effect, 100 complete control; for Plant response rating, Flatsedge: scale 0 to 100 (0 no effect, 100 complete control)
In short: as §2

[14] = test system: barnyardgrass (Echinochloa crus-galli); assay: Test C flooded paddy test; conditions: for Barnyardgrass plant response rating: Flooded Paddy, scale 0 to 100, 0 no effect, 100 complete control; for Plant response rating, Barnyardgrass: scale 0 to 100 (0 no effect, 100 complete control)
In short: as §2

[15] = test system: morning glory (Ipomoea hederacea); assay: Test B postemergence
In short: as §1

[16] = test system: cocklebur (Xanthium strumarium); assay: Test B postemergence
In short: as §1

[17] = test system: giant foxtail (Setaria faberii); assay: Test B postemergence
In short: as §1

[18] = test system: crabgrass (Digitaria sanguinalis); assay: Test B postemergence
In short: as §1

[19] = test system: pigweed (Amaranthus retroflexus); assay: Test B postemergence
In short: as §1

[20] = test system: barnyardgrass (Echinochloa crus-galli); assay: Test B postemergence
In short: as §1

[21] = test system: lambsquarters (Chenopodium album); assay: Test B postemergence
In short: as §1

[22] = test system: Surinam grass (Brachiaria decumbens); assay: Test B postemergence
In short: as §1

Sunflower [23] = assay: Test C preemergence; conditions: Rate 62 g/ha, scale 0 to 100
Sunflower [24] = assay: Test C preemergence; conditions: Rate 250 g/ha, scale 0 to 100, 0 no effect, 100 complete control
[25] = Preemergence, Rate 500 g/ha, scale 0 to 100, 0 no effect, 100 complete control
[26] = preemergence, Rate 125 g/ha, scale of 0 to 100 where 0 is no effect and 100 is complete control, 13 to 15 days
[27] = flooded paddy test, Rate 125 g/ha
[28] = flooded paddy test, Rate 250 g/ha
[29] = flooded paddy test, Rate 62 g/ha, visually evaluated after 12 to 14 days, 0 = no effect, 100 = complete control
[30] = Rate 125 g/ha, scale 0 to 100, 0 no effect, 100 complete control
[31] = Rate 500 g/ha, scale 0 (no effect) to 100 (complete control), 13 to 15 days
[32] = flooded paddy test, Rate 62 g/ha
[33] = Rate 500 g/ha, scale 0 to 100, 0 is no effect, 100 is complete control, 13 to 15 days

COc1cc(N2CCC(n3ccc(C(C)C)n3)C2=O)ccc1Br (stereo not shown) [Compound 140]
35: Plant response rating, Rice (rice (Oryza saliva) [11]; [28])
20: Plant response rating, Cocklebur [2, 26] | Plant response rating, Rice (rice (Oryza saliva) [4]; [26]) | Plant response rating, Corn (corn (Zea mays); [25]) | Plant response rating (scale 0 to 100), Ducksalad [12, 29] | Plant response rating, Crabgrass [18, 30]
30: Plant response rating, Rice (rice (Oryza saliva) [11]; [27]) | Plant response rating, Sunflower (Sunflower [23])
90: Plant response rating, Flatsedge [13, 27] | Plant response rating (scale 0 to 100), Flatsedge [13, 29] | Plant response rating, Cocklebur [16, 31] | Plant response rating, Pigweed [19, 31]
80: Plant response rating, Velvetleaf [6, 25] | Plant response rating, Crabgrass [18, 31] | Plant response rating, Barnyardgrass [20, 31]
95: Ducksalad plant response rating ([12]; Rate 500 g/ha) | Plant response rating, Ducksalad [12, 28] | Flatsedge plant response rating ([13]; Rate 500 g/ha) | Plant response rating, Flatsedge [13, 28]
60: Plant response rating, Cocklebur [2, 25] | Plant response rating, Velvetleaf [6, 26] | Plant response rating, Cocklebur [16, 30] | Plant response rating, Pigweed [19, 30] | Plant response rating, Sunflower (Sunflower [24])
70: Plant response rating, Foxtail, Giant [17, 31] | Plant response rating, Lambsquarters [21, 30]
0: Plant response rating, Morningglory [1, 26] | Plant response rating, Corn (corn (Zea mays); [26]) | Plant response rating (scale 0 to 100), Rice (rice (Oryza saliva) [11]; [29]) | Plant response rating, Morningglory [15, 30] | Plant response rating, Foxtail, Giant [17, 30] | Plant response rating, Barnyardgrass [20, 30] | Plant response rating, Surinam grass [22, 30] | Plant response rating, Surinam grass [22, 31]
50: Rice plant response rating (rice (Oryza saliva) [11]; Rate 500 g/ha) | Plant response rating (scale 0 to 100), Barnyardgrass [14, 29]
40: Plant response rating, Rice (rice (Oryza saliva) [4]; [25])
75: Plant response rating, Ducksalad [12, 27]
100: Plant response rating (0 to 100), Nightshade (Nightshade) | Plant response rating, Morningglory [1, 25] | Plant response rating, Foxtail, Giant [3, 25] | Plant response rating, Foxtail, Giant [3, 26] | Plant response rating, Crabgrass [5, 25] | Plant response rating, Crabgrass [5, 26] | Plant response rating, Pigweed [7, 25] | Plant response rating, Pigweed [7, 26] | Plant response rating, Barnyardgrass [8, 25] | Plant response rating, Barnyardgrass [8, 26] | Plant response rating, Lambsquarters [9, 25] | Plant response rating, Lambsquarters [9, 26] | Plant response rating, Surinam grass [10, 25] | Plant response rating, Surinam grass [10, 26] | Barnyardgrass plant response rating ([14]; Rate 500 g/ha) | Plant response rating, Barnyardgrass [14, 27] | Plant response rating, Barnyardgrass [14, 28] | Plant response rating, Morningglory [15, 31] | Plant response rating, Lambsquarters [21, 31]

CCC(C)c1ccn(C2CCN(c3ccc(Cl)c(OC)c3)C2=O)n1 (stereo not shown) [Compound 119]
70: Plant response rating, Morningglory [1, 25] | Plant response rating, Velvetleaf [6, 25] | Barnyardgrass plant response rating ([14]; Rate 250 g/ha) | Plant response rating, Barnyardgrass [14, 27]
50: Plant response rating, Morningglory [1, 26] | Rice plant response rating (rice (Oryza saliva) [11]; Rate 250 g/ha) | Rice plant response rating (rice (Oryza saliva) [11]; Rate 500 g/ha) | Plant response rating, Surinam grass [22, 33]
100: Plant response rating (0 to 100), Nightshade (Nightshade) | Plant response rating, Foxtail, Giant [3, 25] | Plant response rating, Foxtail, Giant [3, 26] | Plant response rating, Crabgrass [5, 25] | Plant response rating, Crabgrass [5, 26] | Plant response rating, Pigweed [7, 25] | Plant response rating, Pigweed [7, 26] | Plant response rating, Barnyardgrass [8, 25] | Plant response rating, Barnyardgrass [8, 26] | Plant response rating, Lambsquarters [9, 25] | Plant response rating, Lambsquarters [9, 26] | Plant response rating, Surinam grass [10, 25] | Plant response rating, Surinam grass [10, 26] | Ducksalad plant response rating ([12]; Rate 500 g/ha) | Flatsedge plant response rating ([13]; Rate 250 g/ha) | Flatsedge plant response rating ([13]; Rate 500 g/ha) | Plant response rating, Flatsedge [13, 27] | Plant response rating, Cocklebur [16, 33] | Plant response rating, Barnyardgrass [20, 33]
20: Plant response rating, Rice (rice (Oryza saliva) [4]; [25]) | Plant response rating, Rice (rice (Oryza saliva) [11]; [32]) | Plant response rating, Ducksalad [12, 27] | Plant response rating, Surinam grass [22, 30]
30: Plant response rating, Cocklebur [2, 25] | Plant response rating, Cocklebur [2, 26] | Plant response rating, Velvetleaf [6, 26] | Plant response rating, Barnyardgrass [14, 32] | Plant response rating, Morningglory [15, 30] | Plant response rating, Barnyardgrass [20, 30]
60: Plant response rating, Pigweed [19, 30]
80: Barnyardgrass plant response rating ([14]; Rate 500 g/ha)
90: Ducksalad plant response rating ([12]; Rate 250 g/ha) | Plant response rating, Cocklebur [16, 30] | Plant response rating, Lambsquarters [21, 30]
10: Plant response rating, Rice (rice (Oryza saliva) [4]; [26])
0: Plant response rating, Corn (corn (Zea mays); [26]) | Plant response rating, Ducksalad [12, 32] | Plant response rating, Flatsedge [13, 32] | Plant response rating, Foxtail, Giant [17, 30]
40: Plant response rating, Corn (corn (Zea mays); [25]) | Plant response rating, Rice (rice (Oryza saliva) [11]; [27]) | Plant response rating, Crabgrass [18, 30] | Plant response rating, Sunflower (Sunflower [23]) | Plant response rating, Sunflower (Sunflower [24])
